Data reported in ChEMBL document CHEMBL2094269, “WEHI/Eskitis Trypanosoma b. brucei screening data”.
Where “and” joins values, the source holds several entries; their conditions need not be identical. Equal entries are not always repeated.

Tests used:
[1] = DNDI: Cytotoxicity against human MRC-5 lung fibroblast cells.; conditions: IC50
[2] = system: Trypanosoma brucei brucei; assay: microbe, parasite or virus in culture; assay type: functional, organism-based, STIB 795
Description: DNDI: Inhibition of Human African Trypanosomiasis (HAT), STIB 795, in vitro

| Structure (SMILES) | IC50 [1] [µM] | IC50 ([2]; Trypanosoma brucei, STIB 795) [µM] | IC50 [2] |
| --- | --- | --- | --- |
| CCOc1ccc(OCc2ccc(C(=O)N3CCCC(C)C3)cc2)cc1 (stereo not drawn) | > 41.7 | 2.56 | – |
| CN(C)CCNC(=O)c1ccc(COc2ccc(Cl)cc2Cl)cc1 | > 20.8 | 3.41 | – |
| Cc1ccc(C23CC4CC(CC(NC(=O)NCCN(C)C)(C4)C2)C3)cc1 | > 20.8 | 4.01 | – |
| COc1ccc(C(=O)O/N=C(\N)c2ccc(OC)c(OC)c2)c(OC)c1 | > 41.7 | 1.33 | – |
| Cc1cc(C)nc(C(=N)Nc2nc(-c3ccccn3)cc3ccccc23)n1 | 0.216 | 0.245 | – |
| N=c1n(CCO)c2ccccc2n1CCOc1ccc(Cl)cc1Cl | 8.93 | 2.63 | – |
| CCOc1c(Cl)cc(CNCCc2c[nH]c3ccccc23)cc1OC | > 41.7 | 5.09 | – |
| COc1ccccc1-c1nc(SCC(=O)c2ccc(O)c(O)c2)n[nH]1 | > 41.7 | 2.69 | – |
| COc1cc(CNCCO)cc(Br)c1OCc1ccccc1 | > 41.7 | 4.73 | – |
| CC[n+]1c(/C=C/c2ccc(N(C)C)cc2)sc2cc(NC(C)=O)ccc21 | > 20.8 | 0.049 | – |
| Cc1nnc(-c2ccccc2)c(=O)n1/N=C/c1c(O)ccc2ccccc12 | > 4.17 | 6.25 | 6.05 µM |
| Oc1c(C(c2ccccc2Cl)N2CCOCC2)ccc2cccnc12 (stereo not drawn) | > 20.8 | 5.59 | – |
| CCC1CCCCN1S(=O)(=O)c1ccc(-c2ccno2)cc1OC (stereo not drawn) | > 41.7 | 2.73 | – |
| CC(=O)NC1=C(Br)C(=O)c2cccc(NC(C)=O)c2C1=O | 7.49 | 1.15 | – |
| Oc1c(C(Nc2nccs2)c2ccc(F)cc2)ccc2cccnc12 (stereo not drawn) | > 20.8 | – | 2.37 µM and > 10.4 µM |
| NC1=NC(CCc2ccccc2)N(OCCCc2ccccc2)C(N)=N1 (stereo not drawn) | > 4.17 | ≤ 2.78 | – |
| CC(NCCC(c1ccccc1)C1CCOC(C)(C)C1)c1ccccc1 (stereo not drawn) | > 41.7 | 4.93 | – |
| CC(C)(C)n1ncc(SC/C(=N\O)c2ccccc2)c(Cl)c1=O | > 41.7 | 2.37 | – |
| Cc1[nH]c2ccc(OC(F)(F)F)cc2c1CCNCC1CC=CCC1 (stereo not drawn) | 7.85 | 2.89 | – |
| O=C(CC(Nc1ccc2ccccc2c1)c1ccncc1)c1cccnc1 (stereo not drawn) | > 41.7 | 0.827 | – |
| COc1ccc(C(CC(=O)c2ccncc2)SCc2ccco2)cc1 (stereo not drawn) | > 41.7 | 4.3 | – |
| CN1CCN(C2Cc3ccccc3Sc3ccc(N(C)C)cc32)CC1 (stereo not drawn) | > 41.7 | 5.04 | – |

| Structure (SMILES) | IC50 [1] [µM] | IC50 ([2]; Trypanosoma brucei, STIB 795) [µM] | IC50 [2] |
| --- | --- | --- | --- |
| CCOc1cc(CNCCO)cc(Cl)c1OCc1ccccc1F | > 20.8 | 2.43 | – |
| CCN1/C(=C\C=C/C2C=Cc3ccccc3N2CC)C=Cc2ccccc21 (stereo not drawn) | 5.14 | 0.408 | – |
| CCN(CC)CCCCN(CCc1ccccc1)Cc1ccc(O)cc1 | > 41.7 | 4.55 | – |
| Cc1cc(C(=O)N/N=C/c2c(O)ccc3ccccc23)c2ccccc2n1 | > 4.17 | 5.24 | – |
| CCc1ccc(NS(=O)(=O)c2cc(-c3cc(C)n[nH]3)ccc2C)cc1 | > 4.17 | 1.23 | – |
| Cc1cccc(C)c1C(O)(CC(O)CNC(C)C)c1c(C)cccc1C (stereo not drawn) | > 41.7 | 4.92 | – |
| CC(C)NCC(O)CC(O)(c1ccccc1)c1ccc(C(C)(C)C)cc1 (stereo not drawn) | > 20.8 | 5.12 | – |
| Cc1ccc2oc(SCC(=O)Nc3nc4ccccc4s3)nc2n1 | > 20.8 | 2.16 | – |
| O=C(NC(=S)NNC(=S)N/N=C/c1ccccc1)c1ccccc1 | > 20.8 | 4.16 | – |
| CN1CCN(Cc2cn(-c3ccc(Cl)cc3)c3ccc(F)cc23)CC1 | > 41.7 | 5.2 | – |
| CCOc1cc2c(cc1OCC)C(/C(Cl)=C/c1ccccc1)NCC2 (stereo not drawn) | > 41.7 | 5 | – |
| CC(CON1C(N)=NC(N)=NC1(C)C)Cc1cc(Cl)ccc1Cl (stereo not drawn) | > 20.8 | 4.67 | – |
| COc1ccc(/C=N/NC(=O)C(OC)c2ccccc2)c(OC)c1OC (stereo not drawn) | > 4.17 | 2.27 | – |
| COc1ccc(/C(N)=N/OC(=O)C23CC4CC(CC(C4)C2)C3)cc1OC | > 41.7 | 0.774 | – |
| CC1(C)N=C(N)N=C(N)N1OCc1ccc(F)c(-c2ccc(F)cc2)c1 | > 2.08 | ≤ 1.45 | – |
| COc1cccc(C2=NC(c3cccnc3)NC(c3ccccc3O)C2)c1 (stereo not drawn) | > 20.8 | 1.5 | – |
| CS(=O)(=O)c1cccc(C(=O)Nc2nc(-c3ccccn3)cs2)c1 | > 10.4 | 0.498 | – |
| CC1(C)CC(N2COc3c(cc(Cl)c4cccnc34)C2)CC(C)(C)N1 | > 20.8 | 5.53 | – |
| COc1cc(Cl)cc2c1Sc1ccccc1CC2N1CCNCC1 (stereo not drawn) | > 20.8 | 4.17 | – |
| Cc1ccnc(NC(c2ccc3cccnc3c2O)c2sccc2C)c1 (stereo not drawn) | > 20.8 | 3.32 | – |
| Oc1c(C(Nc2ccccn2)c2ccccc2Cl)ccc2cccnc12 (stereo not drawn) | > 20.8 | 9.28 | – |
| Cc1nnc(-c2cc(S(=O)(=O)NCc3ccc4c(c3)OCO4)c[nH]2)o1 | > 41.7 | 5.42 | – |

| Structure (SMILES) | IC50 [1] [µM] | IC50 ([2]; Trypanosoma brucei, STIB 795) [µM] | IC50 [2] |
| --- | --- | --- | --- |
| CC(Cc1ccccc1)[n+]1[cH-]/c(=N\C(=N\Cc2ccccc2)N(C)C)on1 (stereo not drawn) | > 41.7 | 0.83 | – |
| C=CCn1c(-c2ccccc2Cl)nn(C2CCC3OCC2O3)c1=S (stereo not drawn) | > 20.8 | 3.79 | – |
| O=C(CC1(O)C(=O)Nc2ccc(Br)cc21)c1ccccc1F (stereo not drawn) | > 41.7 | 4.54 | – |
| CC(C)(C)c1cc(/C=N/Nc2nc3ccccc3[nH]2)cc(C(C)(C)C)c1O | > 20.8 | 0.485 | – |
| CN(C)CCCN(C)Cc1ccccc1Sc1ccc2ccccc2c1 | > 41.7 | 2.57 | – |
| Cc1cc2c(c(=O)o1)C(c1ccc(Br)s1)C(C#N)=C(N)O2 (stereo not drawn) | > 41.7 | – | 5.05 µM and > 10.4 µM |
| COc1c(S(=O)(=O)c2ccc(C)c(F)c2)cnc2ccc(Cl)cc12 | > 20.8 | 3.1 | – |
| Cc1cc(F)ccc1NC(=O)Nc1ccc(-c2noc(C3CCC3)n2)cc1 | > 41.7 | 4.73 | – |
| Cc1cc(-c2ccco2)c(C#N)c(SCC(=O)c2ccc(O)c(O)c2)n1 | > 41.7 | 0.791 | 0.756 µM |
| COc1cc2nc(-c3cccnc3)nc(N3CCC[C@H]3CO)c2cc1OC | > 20.8 | 5.31 | – |
| CCN(CC)c1ccc(/C=N\NC(=O)Cn2nnc3ccccc32)c(O)c1 | > 41.7 | 0.551 | – |
| O=C(CN1C(=O)S/C(=C/c2ccccc2Cl)C1=O)N1CCOCC1 | > 41.7 | 5.03 | – |
| CN(CCO)CC(O)Cn1c2ccc(Cl)cc2c2cc(Cl)ccc21 (stereo not drawn) | > 20.8 | 4.95 | – |
| Cc1ccc(C(=O)ON=C(/C=C/c2ccccc2)/C=C/c2ccccc2)cc1 | > 41.7 | 1.65 | – |
| CC(CON1C(N)=NC(N)=NC1(C)C)Cc1cccc(Br)c1 (stereo not drawn) | > 4.17 | ≤ 3.67 | – |
| CCN(CC)CCn1c(=N)n(CC(=O)c2ccc(C)cc2)c2ccccc21 | > 41.7 | 4.72 | 4.97 µM |
| N=C(Nc1nc(-c2ccccn2)cc2ccccc12)c1cccc(Cl)c1 | > 41.7 | 6.02 | – |
| CCC(/C=C1\Sc2ccccc2N1C)=C\c1sc2ccccc2[n+]1C | 2.28 | 0.403 | – |
| CC[n+]1c(/C=C/c2ccc(N(C)C)cc2)sc2ccc(C(=O)OC)cc21 | > 20.8 | 0.131 | – |
| Oc1c(CN2CCC(Cc3ccccc3)CC2)cc(Cl)c2cccnc12 | > 20.8 | 4.68 | – |
| Cc1cc2nc(N/C(N)=N/C(=O)NC3CCCCC3)nc(C)c2cc1C | > 41.7 | 5.33 | – |
